What was measured:
[1] = system: Stellaria media, Lolium multiflorum, Amaranthus retroflexus, Sinapis alba, Avena sativa and Setaria viridis; assay: Pre-emergence herbicidal action (greenhouse pot test); type: in vivo; conditions: application rate of 1 kg or less of active substance per hectare; scored visually after 3 to 4 weeks in comparison to untreated controls
Text: Seeds or rhizome pieces of mono- and dicotyledonous weed plants were placed in sandy loam in plastic pots and covered with soil. The inventive compounds, which have been formulated in the form of wettable powders or emulsion concentrates, were then applied to the surface of the covering soil as an aqueous suspension or emulsion in different dosages with an application rate of from 600 to 800 l/ha of water (converted).

[2] = system: Sinapis alba, Echinochloa crus-galli, Lolium multiflorum, Stellaria media, Cyperus iria, Amaranthus retroflexus, Setaria viridis, Avena sativa, Lamium …; assay: Post-emergence herbicidal action (greenhouse pot test); type: in vivo; conditions: application rate of 1 kg and less of active substance per hectare; treated at three-leaf stage; scored visually after approx. 3 to 4 weeks in comparison to untreated controls
Protocol: Seeds or rhizome pieces of mono- and dicotyledonous weeds were placed in sandy loam in plastic pots, covered with soil and grown in a greenhouse under good growth conditions. Three weeks after the sowing, the test plants were treated at the three-leaf stage. The inventive compounds formulated as spray powders or as emulsion concentrates were sprayed onto the green plant parts in various dosages with an application rate of from 600 to 800 l/ha of water (converted). After the test plants had been left to stand in the greenhouse under optimal growth conditions for approx. 3 to 4 weeks, the action of the preparations was scored visually in comparison to untreated controls. The inventive compositions also had good post-emergence herbicidal activity against a wide spectrum of economically important gramineous and broadleaf weeds.

C[C@@H](F)c1nc(NC(=O)C2CC2)nc(N[C@@H]2CCCc3ccccc32)n1 [Compound 2.68]
herbicidal action against harmful plants in the pre-emergence method [1]: very good herbicidal action
herbicidal action against harmful plants in the post-emergence method [2]: very good herbicidal action

Cc1ccc2c(c1)C(Nc1ncnc(NC(=O)C3CC3)n1)C(C)C2 (stereo not shown) [Compound 2.75]
herbicidal action against harmful plants in the pre-emergence method [1]: very good herbicidal action
herbicidal action against harmful plants in the post-emergence method [2]: very good herbicidal action

Cc1ccc2c(c1)C(Nc1nc(NC(=S)NC(C)(C)C)nc(C(C)F)n1)C(C)C2 (stereo not shown) [Compound 2.76]
herbicidal action against harmful plants in the pre-emergence method [1]: very good herbicidal action
herbicidal action against harmful plants in the post-emergence method [2]: very good herbicidal action

Cc1ccc2c(c1)C(Nc1nc(NC(=O)NC(C)C)nc(C(C)F)n1)C(C)C2 (stereo not shown) [Compound 2.78]
herbicidal action against harmful plants in the pre-emergence method [1]: very good herbicidal action
herbicidal action against harmful plants in the post-emergence method [2]: very good herbicidal action

CCCCNC(=O)Nc1nc(NC2c3cc(C)ccc3CC2C)nc(C(C)F)n1 (stereo not shown) [Compound 2.87]
herbicidal action against harmful plants in the pre-emergence method [1]: very good herbicidal action
herbicidal action against harmful plants in the post-emergence method [2]: very good herbicidal action

CCCCCCNC(=O)Nc1nc(NC2c3cc(C)ccc3CC2C)nc(C(C)F)n1 (stereo not shown) [Compound 2.88]
herbicidal action against harmful plants in the pre-emergence method [1]: very good herbicidal action
herbicidal action against harmful plants in the post-emergence method [2]: very good herbicidal action

Cc1ccc2c(c1)C(Nc1nc(NC(=O)NC3CCCC3)nc(C(C)F)n1)C(C)C2 (stereo not shown) [Compound 2.101]
herbicidal action against harmful plants in the pre-emergence method [1]: very good herbicidal action
herbicidal action against harmful plants in the post-emergence method [2]: very good herbicidal action

Cc1ccc2c(c1)C(Nc1nc(NC(=O)NCc3ccccc3)nc(C(C)F)n1)C(C)C2 (stereo not shown) [Compound 2.103]
herbicidal action against harmful plants in the pre-emergence method [1]: very good herbicidal action
herbicidal action against harmful plants in the post-emergence method [2]: very good herbicidal action

COCCNC(=O)Nc1nc(NC2c3cc(C)ccc3CC2C)nc(C(C)F)n1 (stereo not shown) [Compound 2.104]
herbicidal action against harmful plants in the pre-emergence method [1]: very good herbicidal action
herbicidal action against harmful plants in the post-emergence method [2]: very good herbicidal action

COC(C)(C)CNC(=O)Nc1nc(NC2c3cc(C)ccc3CC2C)nc(C(C)F)n1 (stereo not shown) [Compound 2.105]
herbicidal action against harmful plants in the pre-emergence method [1]: very good herbicidal action
herbicidal action against harmful plants in the post-emergence method [2]: very good herbicidal action

CCOC(CNC(=O)Nc1nc(NC2c3cc(C)ccc3CC2C)nc(C(C)F)n1)OCC (stereo not shown) [Compound 2.106]
herbicidal action against harmful plants in the pre-emergence method [1]: very good herbicidal action
herbicidal action against harmful plants in the post-emergence method [2]: very good herbicidal action

CCOC(=O)CNC(=O)Nc1nc(NC2c3cc(C)ccc3CC2C)nc(C(C)F)n1 (stereo not shown) [Compound 2.111]
herbicidal action against harmful plants in the pre-emergence method [1]: very good herbicidal action
herbicidal action against harmful plants in the post-emergence method [2]: very good herbicidal action

COC(C)(C)CNC(=S)Nc1nc(NC2c3cc(C)ccc3CC2C)nc(C(C)F)n1 (stereo not shown) [Compound 2.114]
herbicidal action against harmful plants in the pre-emergence method [1]: very good herbicidal action
herbicidal action against harmful plants in the post-emergence method [2]: very good herbicidal action

Cc1ccc2c(c1)C(Nc1nc(NC(=O)Nc3ccccc3)nc(C(C)F)n1)C(C)C2 (stereo not shown) [Compound 2.115]
herbicidal action against harmful plants in the pre-emergence method [1]: very good herbicidal action
herbicidal action against harmful plants in the post-emergence method [2]: very good herbicidal action

Cc1ccc(NC(=O)Nc2nc(NC3c4cc(C)ccc4CC3C)nc(C(C)F)n2)cc1 (stereo not shown) [Compound 2.116]
herbicidal action against harmful plants in the pre-emergence method [1]: very good herbicidal action
herbicidal action against harmful plants in the post-emergence method [2]: very good herbicidal action

Cc1ccc2c(c1)C(Nc1nc(NC(=O)Nc3ccc(F)cc3)nc(C(C)F)n1)C(C)C2 (stereo not shown) [Compound 2.117]
herbicidal action against harmful plants in the pre-emergence method [1]: very good herbicidal action
herbicidal action against harmful plants in the post-emergence method [2]: very good herbicidal action

COc1ccc(NC(=O)Nc2nc(NC3c4cc(C)ccc4CC3C)nc(C(C)F)n2)cc1 (stereo not shown) [Compound 2.122]
herbicidal action against harmful plants in the pre-emergence method [1]: very good herbicidal action
herbicidal action against harmful plants in the post-emergence method [2]: very good herbicidal action

Cc1ccc2c(c1)C(Nc1nc(NC(=S)Nc3ccccc3)nc(C(C)F)n1)C(C)C2 (stereo not shown) [Compound 2.127]
herbicidal action against harmful plants in the pre-emergence method [1]: very good herbicidal action
herbicidal action against harmful plants in the post-emergence method [2]: very good herbicidal action

Cc1ccc(NC(=S)Nc2nc(NC3c4cc(C)ccc4CC3C)nc(C(C)F)n2)cc1 (stereo not shown) [Compound 2.128]
herbicidal action against harmful plants in the pre-emergence method [1]: very good herbicidal action
herbicidal action against harmful plants in the post-emergence method [2]: very good herbicidal action

Cc1ccc2c(c1)C(Nc1nc(NC(=S)Nc3ccc(F)cc3)nc(C(C)F)n1)C(C)C2 (stereo not shown) [Compound 2.129]
herbicidal action against harmful plants in the pre-emergence method [1]: very good herbicidal action
herbicidal action against harmful plants in the post-emergence method [2]: very good herbicidal action

COc1ccc(NC(=S)Nc2nc(NC3c4cc(C)ccc4CC3C)nc(C(C)F)n2)cc1 (stereo not shown) [Compound 2.130]
herbicidal action against harmful plants in the pre-emergence method [1]: very good herbicidal action
herbicidal action against harmful plants in the post-emergence method [2]: very good herbicidal action

Cc1ccc2c(c1)C(Nc1nc(NC(=S)NCc3ccccc3)nc(C(C)F)n1)C(C)C2 (stereo not shown) [Compound 2.131]
herbicidal action against harmful plants in the pre-emergence method [1]: very good herbicidal action
herbicidal action against harmful plants in the post-emergence method [2]: very good herbicidal action

CCCCNC(=S)Nc1nc(N[C@H]2c3cc(C)ccc3C[C@@H]2C)nc([C@@H](C)F)n1 [Compound 2.132]
herbicidal action against harmful plants in the pre-emergence method [1]: very good herbicidal action
herbicidal action against harmful plants in the post-emergence method [2]: very good herbicidal action

CCNC(=S)Nc1nc(N[C@H]2c3cc(C)ccc3C[C@@H]2C)nc([C@@H](C)F)n1 [Compound 2.133]
herbicidal action against harmful plants in the pre-emergence method [1]: very good herbicidal action
herbicidal action against harmful plants in the post-emergence method [2]: very good herbicidal action

Cc1ccc2c(c1)[C@H](Nc1nc(NC(=S)NCCc3ccc(Cl)cc3)nc([C@@H](C)F)n1)[C@@H](C)C2 [Compound 2.134]
herbicidal action against harmful plants in the pre-emergence method [1]: very good herbicidal action
herbicidal action against harmful plants in the post-emergence method [2]: very good herbicidal action

Cc1ccc2c(c1)[C@H](Nc1nc(NC(=S)NCc3ccco3)nc([C@@H](C)F)n1)[C@@H](C)C2 [Compound 2.138]
herbicidal action against harmful plants in the pre-emergence method [1]: very good herbicidal action
herbicidal action against harmful plants in the post-emergence method [2]: very good herbicidal action

Cc1ccc2c(c1)[C@H](Nc1nc(NC(=S)NC3CCCCC3)nc([C@@H](C)F)n1)[C@@H](C)C2 [Compound 2.139]
herbicidal action against harmful plants in the pre-emergence method [1]: very good herbicidal action
herbicidal action against harmful plants in the post-emergence method [2]: very good herbicidal action

COc1cccc(NC(=O)Nc2nc(N[C@H]3c4cc(C)ccc4C[C@@H]3C)nc([C@@H](C)F)n2)c1 [Compound 2.140]
herbicidal action against harmful plants in the pre-emergence method [1]: very good herbicidal action
herbicidal action against harmful plants in the post-emergence method [2]: very good herbicidal action

CC(=O)Nc1nc(N[C@H]2c3cc(C)ccc3C[C@@H]2C)nc(C(F)F)n1 [Compound 2.149]
herbicidal action against harmful plants in the pre-emergence method [1]: very good herbicidal action
herbicidal action against harmful plants in the post-emergence method [2]: very good herbicidal action

CCC(=O)Nc1nc(N[C@H]2c3cc(C)ccc3C[C@@H]2C)nc(C(F)F)n1 [Compound 2.150]
herbicidal action against harmful plants in the pre-emergence method [1]: very good herbicidal action
herbicidal action against harmful plants in the post-emergence method [2]: very good herbicidal action

Cc1ccc2c(c1)[C@H](Nc1nc(NC(=O)C(C)(C)C)nc(C(F)F)n1)[C@@H](C)C2 [Compound 2.151]
herbicidal action against harmful plants in the pre-emergence method [1]: very good herbicidal action
herbicidal action against harmful plants in the post-emergence method [2]: very good herbicidal action

Cc1ccc2c(c1)[C@H](Nc1nc(N=CN(C)C)nc([C@@H](C)F)n1)[C@@H](C)C2 [Compound 2.153]
herbicidal action against harmful plants in the pre-emergence method [1]: very good herbicidal action
herbicidal action against harmful plants in the post-emergence method [2]: very good herbicidal action

C[C@@H](F)c1nc(N=CN(C)C)nc(N[C@@H]2CCCc3ccccc32)n1 [Compound 2.154]
herbicidal action against harmful plants in the pre-emergence method [1]: very good herbicidal action
herbicidal action against harmful plants in the post-emergence method [2]: very good herbicidal action

Cc1ccc2c(c1)[C@H](Nc1ncnc(N=CN(C)C)n1)[C@@H](C)C2 [Compound 2.155]
herbicidal action against harmful plants in the pre-emergence method [1]: very good herbicidal action
herbicidal action against harmful plants in the post-emergence method [2]: very good herbicidal action

CC(=Nc1nc(N[C@H]2c3cc(C)ccc3C[C@@H]2C)nc([C@@H](C)F)n1)N(C)C [Compound 2.156]
herbicidal action against harmful plants in the pre-emergence method [1]: very good herbicidal action
herbicidal action against harmful plants in the post-emergence method [2]: very good herbicidal action

Source: patent publication US20070293399A1, “SUBSTITUTED DIAMINO-1,3,5-TRIAZINES, PROCESSES FOR THEIR PREPARATION AND THEIR USE AS HERBICIDES AND CROP GROWTH REGULATORS” (Bayer CropScience AG, priority 2006, published 2007)
